The source of these data is patent US20080261942A1, “COMBINATIONS OF BILE ACID SEQUESTRANT(S) AND STEROL ABSORPTION INHIBITOR(S) AND TREATMENTS FOR VASCULAR INDICATIONS” (SCHERING CORPORATION, priority 2001, published 2008).

The assay deals with free cholesterol absorption. Nature of the assay: short term hamster model tracking a bolus of gavaged radiolabeled cholesterol. The format is in vivo, Male Golden Syrian hamsters. From the text:
To follow the movement of lipids across the intestinal wall leading to its subsequent appearance in the lymph, blood and liver, a short term hamster model which tracked a bolus of gavaged radiolabeled lipid was used. Free cholesterol absorption was examined in this hamster model to explore whether the cholesterol absorption inhibitor compound of Formula (XII): […]
Male Golden Syrian hamsters were fed a diet containing 0.5% cholesterol overnight and divided into groups of 5 animals. […] Two hours later, blood and liver samples were collected from each hamster. The blood was centrifuged for 20 minutes at 3000 rpm and the plasma was removed. Aliquots of the plasma and liver were analyzed for [^14C] radioactivity. Radioactive content was determined using a Beckman LSC (liquid […] counter).

Where [1] appears, read: hamsters fed 0.5% cholesterol diet, gavage 1 h before [14C]-cholesterol, samples two hours later, Compound XII 3 mg/kg, cholestyramine 1 g/kg.
The mark [2] stands for this setting: hamsters fed 0.5% cholesterol diet, samples two hours after [14C]-cholesterol, Compound XII 3 mg/kg, cholestyramine 1 g/kg.
Where [3] appears, read: specified dosage (Compound XII 3 mg/kg, cholestyramine 1 g/kg).

Regarding `COc1ccc([C@@H]2[C@@H](CCCc3ccccc3)C(=O)N2c2ccc(OC)cc2)cc1` [Compound XII], under setting [1], the “Liver [14C]-cholesterol (DPM/gram of liver)” value is reported as 3755 ± 923 DPM/gram of liver and the “Plasma [14C]-cholesterol (Decays Per Minute (DPM)/milliter of plasma)” value is 1438 ± 455 DPM/milliter of plasma. Under setting [2], the “Liver [14C]-cholesterol, change versus Control (in brackets)” value was −53% and the “Plasma [14C]-cholesterol, change versus Control (in brackets)” value is −71%. Further, under setting [3], the “reduction of liver (hepatic) [14C]-cholesterol levels” value came out at 53% and the “reduction of plasma [14C]-cholesterol levels” value was determined as 71%.
